Assay results taken from patent US8575091B1, “Amylin analogues and pharmaceutical compositions thereof” (Novo Nordisk A/S, priority 2012, dated 2013).
pEC50, pIC50: −log10 of the molar value. Numbered stars: 1 amine (or outer) side, 2 acyl side, 3 side chain; on linkers, the order of the positions; unused ones are H or OH. Bridge positions count the residues as written; N and C are the ends. Side chains are listed from the residue outwards. Peptide text beside a SMILES is read from it. * marks the point of attachment. C20 diacid = O=C(O)CCCCCCCCCCCCCCCCCCC(=O)*; γGlu = O=C(O)[C@H](CCC(=O)[*:2])N[*:1]; AEEA = NCCOCCOCC(=O)O

What was measured:
[1] = Assay (III) ThT fibrillation assay for physical stability; format: physicochemical
Description: Assay (III)—ThT Fibrillation Assays for the Assessment of Physical Stability of Protein Formulations Low physical stability of a polypeptide may lead to amyloid fibril formation, which is observed as well-ordered, thread-like macromolecular structures in the sample eventually resulting in gel formation. This has traditionally been measured by visual inspection of the sample. However, that kind of measurement is very subjective and depending on the observer. Therefore, the application of a small molecule indicator probe is much more advantageous. Thioflavin T (ThT) is such a probe and has a distinct fluorescence signature when binding to fibrils [Naiki et al. (1989) Anal. […] LeVine (1999) Methods. Enzymol. […], 274-284]. The time course for fibril formation can be described by a sigmoidal curve with the following expression [Nielsen et al. (2001) Biochemistry 40, 6036-6046]: […] Here, F is the ThT fluorescence at the time t. The constant t0 is the time needed to reach 50% of maximum fluorescence. […] Incubation and Fluorescence Measurement Incubation at given temperature, shaking and measurement of the ThT fluorescence emission were done in a Fluoroskan Ascent FL fluorescence platereader or Varioskan platereader (Thermo Labsystems). […] Fluorescence measurement was done using excitation through a 444 nm filter and measurement of emission through a 485 nm filter. […] The plate was measured every 20 minutes for a desired period of time. […] However, since full sigmodial curves in this case are not always achieved during the measurement time, the degree of fibrillation is expressed as ThT fluorescence tabulated as the mean of the samples and shown with the standard deviation at various time points. Measurement of Initial and Final Concentrations The polypeptide concentration in each of the tested formulations were measured both before application in the ThT fibrillation assay (“Initial”) and after completion of the ThT fibrillation (“After ThT assay”). Concentrations were determined by reverse HPLC methods using a pramlintide standard as a reference. […]

[2] = biological target: T1, human calcitonin receptor (Homo sapiens, UniProt P30988); test: Assay (VII) binding to the human calcitonin receptor (SPA, 125I-Calcitonin); conditions: read-out: hCTR bind IC50;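 also: cell membranes coupled to SPA beads, competitive displacement read by scintillation counting, IC50 derived from a one-site competition fit as a measure of receptor affinity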
T1 construct: expressed in transfected cells
T1 sequence (P30988 25-474): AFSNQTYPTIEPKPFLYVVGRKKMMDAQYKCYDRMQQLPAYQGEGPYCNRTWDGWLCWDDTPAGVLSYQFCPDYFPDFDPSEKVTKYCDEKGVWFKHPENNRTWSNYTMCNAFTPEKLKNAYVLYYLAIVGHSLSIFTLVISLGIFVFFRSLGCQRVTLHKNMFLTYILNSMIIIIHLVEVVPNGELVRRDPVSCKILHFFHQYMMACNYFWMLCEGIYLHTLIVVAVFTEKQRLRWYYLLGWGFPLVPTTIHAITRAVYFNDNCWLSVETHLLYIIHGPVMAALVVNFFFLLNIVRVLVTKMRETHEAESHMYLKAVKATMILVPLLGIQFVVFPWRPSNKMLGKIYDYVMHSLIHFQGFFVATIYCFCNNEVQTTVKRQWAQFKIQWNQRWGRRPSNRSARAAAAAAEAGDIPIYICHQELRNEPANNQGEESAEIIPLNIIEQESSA

[3] = biological target: T1, human calcitonin receptor; test: Assay (II)a functional assay, human calcitonin receptor (CRE luciferase, BHK cells);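 also: luminescence from a CRE-driven luciferase reporter, read by single photon counting after cells were exposed to test samples for 3 h at 37 °C under 5% CO2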; format: cell-based; conditions: read-out: hCTR funct. EC50
[4] = biological target: T2, human amylin receptor (Homo sapiens, UniProt O60896+P30988); test: Assay (V) binding to the human amylin receptor (SPA, 125I-rat amylin); conditions: human amylin receptor membranes, SPA; read-out: hAmylin-R bind IC50
T2 construct: expressed in transfected cells
T2 sequence (P30988 25-474): T1 sequence (P30988 25-474)
T2 sequence (O60896 24-148 partner): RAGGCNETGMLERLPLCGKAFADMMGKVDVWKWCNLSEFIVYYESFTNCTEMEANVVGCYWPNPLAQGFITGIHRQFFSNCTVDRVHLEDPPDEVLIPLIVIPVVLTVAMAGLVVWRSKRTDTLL
Method in brief: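 IC50, taken as receptor affinity, came from one-site binding competition analysis of scintillation proximity counts. Amylin 3(a)/CRE-luc cell membranes (35 ng/μL final) were mixed with SPA beads (0.05 mg/well) in 50 mM Hepes pH 7.4 containing CaCl2, MgCl2, 0.1% OA and 0.02% Tween20.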

[5] = biological target: T3, human amylin receptor (amylin 3(a) receptor: human calcitonin receptor + RAMP-3) (Homo sapiens, UniProt O60896+P30988); test: Assay (II)a functional assay, human amylin receptor (CRE luciferase, BHK cells); format: cell-based
T3 construct: expressed in transfected cells
T3 sequence (P30988 25-474): T1 sequence (P30988 25-474)
T3 sequence (O60896 24-148 partner): T2 sequence (O60896 24-148 partner)

| Compound | ThT pH 4.0 recovery (%) [1] | pIC50 [2] | pEC50 [3] | pIC50 [4] | pEC50 ([5]; functional assay, human amylin receptor, read-out: hAmylin-R funct. EC50) | Ratio hCT/hAmylin funct. ([5]; Table 6, human functional selectivity (hCTR EC50 / hAmylin-R EC50)) |
| --- | --- | --- | --- | --- | --- | --- |
| CC[C@H](C)[C@H](NC(=O)[C@H](C)NC(=O)CNC(=O)[C@H](Cc1ccccc1)NC(=O)[C@H](CC(N)=O)NC(=O)[C@@H]1CCCN1C(=O)[C@H](CO)NC(=O)[C@H](CO)NC(=O)[C@H](Cc1c[nH]cn1)NC(=O)[C@H](CCCNC(=N)N)NC(=O)[C@H](CC(C)C)NC(=O)[C@H](Cc1ccccc1)NC(=O)[C@H](CO)NC(=O)[C@H](C)NC(=O)[C@H](CC(C)C)NC(=O)[C@H](CCCNC(=N)N)NC(=O)[C@H](CCC(N)=O)NC(=O)[C@@H](NC(=O)[C@H](C)NC(=O)[C@@H]1CSSC[C@H](NC(=O)[C@@H](N)CCCCNC(=O)COCCOCCNC(=O)CC[C@H](NC(=O)CCCCCCCCCCCCCCCCCCC(=O)O)C(=O)O)C(=O)N[C@@H](CC(N)=O)C(=O)N[C@@H]([C@@H](C)O)C(=O)N[C@@H](C)C(=O)N[C@@H]([C@@H](C)O)C(=O)N1)[C@@H](C)O)C(=O)N1CCC[C@H]1C(=O)N[C@@H](CO)C(=O)N[C@@H](CO)C(=O)N[C@H](C(=O)N1CCC[C@H]1C(=O)N[C@H](C(=O)NCC(=O)N[C@@H](CO)C(=O)N[C@@H](CC(N)=O)C(=O)N[C@H](C(=O)N[C@@H](Cc1ccc(O)cc1)C(N)=O)[C@@H](C)O)C(C)C)[C@@H](C)O [Example 73] (H-K([AEEA-γGlu-C20 diacid])CNTATCATQRLASFLRHSSPNFGAIPSSTPVGSNTY-NH2; disulfide 2-7) | 1% | 8.27 | 9.02 | 9.98 | 10.07 | – |
| CC[C@H](C)[C@H](NC(=O)[C@H](C)NC(=O)CNC(=O)[C@H](Cc1ccccc1)NC(=O)[C@H](CC(N)=O)NC(=O)[C@@H]1CCCN1C(=O)[C@H](CO)NC(=O)[C@H](CO)NC(=O)[C@H](Cc1c[nH]cn1)NC(=O)[C@H](CCCNC(=N)N)NC(=O)[C@H](CC(C)C)NC(=O)[C@H](Cc1ccccc1)NC(=O)[C@H](C)NC(=O)[C@H](C)NC(=O)[C@H](CC(C)C)NC(=O)[C@H](CCCNC(=N)N)NC(=O)[C@H](CCC(N)=O)NC(=O)[C@@H](NC(=O)[C@H](C)NC(=O)[C@@H]1CSSC[C@H](NC(=O)[C@H](CCCNC(=N)N)NC(=O)CNC(=O)CC[C@H](NC(=O)CCCCCCCCCCCCCCCCCCC(=O)O)C(=O)O)C(=O)N[C@@H](CC(N)=O)C(=O)N[C@@H]([C@@H](C)O)C(=O)N[C@@H](C)C(=O)N[C@@H]([C@@H](C)O)C(=O)N1)[C@@H](C)O)C(=O)N1CCC[C@H]1C(=O)N[C@@H](CO)C(=O)N[C@@H](CO)C(=O)N[C@H](C(=O)N[C@@H](CC(N)=O)C(=O)N[C@H](C(=O)NCC(=O)N1CCC[C@H]1C(=O)N[C@@H](CC(N)=O)C(=O)N[C@H](C(=O)N[C@@H](Cc1ccc(O)cc1)C(N)=O)[C@@H](C)O)C(C)C)[C@@H](C)O [Example 103] ({C20 diacid-γGlu}-GRCNTATCATQRLAAFLRHSSPNFGAIPSSTNVGPNTY-NH2; disulfide 3-8 (inferred); C-terminus assumed) | 82% | – | – | – | – | 2.1 |
| CC[C@H](C)[C@H](NC(=O)[C@H](C)NC(=O)CNC(=O)[C@H](Cc1ccccc1)NC(=O)[C@H](CC(N)=O)NC(=O)[C@@H]1CCCN1C(=O)[C@H](CO)NC(=O)[C@H](CO)NC(=O)[C@H](Cc1c[nH]cn1)NC(=O)[C@H](CCCNC(=N)N)NC(=O)[C@H](CC(C)C)NC(=O)[C@H](Cc1ccccc1)NC(=O)[C@H](CCCCN)NC(=O)[C@H](C)NC(=O)[C@H](CC(C)C)NC(=O)[C@H](CCCNC(=N)N)NC(=O)[C@H](CCC(N)=O)NC(=O)[C@@H](NC(=O)[C@H](C)NC(=O)[C@@H]1CSSC[C@H](NC(=O)[C@@H](N)CCCCNC(=O)COCCOCCNC(=O)CC[C@H](NC(=O)CCCCCCCCCCCCCCCCCCC(=O)O)C(=O)O)C(=O)N[C@@H](CC(N)=O)C(=O)N[C@@H]([C@@H](C)O)C(=O)N[C@@H](C)C(=O)N[C@@H]([C@@H](C)O)C(=O)N1)[C@@H](C)O)C(=O)N1CCC[C@H]1C(=O)N[C@@H](CO)C(=O)N[C@@H](CO)C(=O)N[C@H](C(=O)N1CCC[C@H]1C(=O)N[C@H](C(=O)NCC(=O)N[C@@H](CO)C(=O)N[C@@H](CC(N)=O)C(=O)N[C@H](C(=O)N[C@@H](Cc1ccc(O)cc1)C(N)=O)[C@@H](C)O)C(C)C)[C@@H](C)O [Example 74] (H-K([AEEA-γGlu-C20 diacid])CNTATCATQRLAKFLRHSSPNFGAIPSSTPVGSNTY-NH2; disulfide 2-7 (inferred); N-terminus and C-terminus assumed) | 87% | – | – | – | – | – |
